Values quoted from earlier work, collected in patent US20080108695A1, “Method of Treating Asthma, Allergic Rhinitis, and Skin Disorders” (Alcon Manufacturing Ltd., priority 2006, published 2008).

Key:
neutrophils = settings: potency compared with lipoxin A4; literature report of Lee et al.
[1] = target: T1, ALXR (formyl peptide receptor FPRL-1) (Homo sapiens, UniProt P25090); settings: lipoxin A4 cognate receptor; background statement
T1 sequence (P25090 1-351): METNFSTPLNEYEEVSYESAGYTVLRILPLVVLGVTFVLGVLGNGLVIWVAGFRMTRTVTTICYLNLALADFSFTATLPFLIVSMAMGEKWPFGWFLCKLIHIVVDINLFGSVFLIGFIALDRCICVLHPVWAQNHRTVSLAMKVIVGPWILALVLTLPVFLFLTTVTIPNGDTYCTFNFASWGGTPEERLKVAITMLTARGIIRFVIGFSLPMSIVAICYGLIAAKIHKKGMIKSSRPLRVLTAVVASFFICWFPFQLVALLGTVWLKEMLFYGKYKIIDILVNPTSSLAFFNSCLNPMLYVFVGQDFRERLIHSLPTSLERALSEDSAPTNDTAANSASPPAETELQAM

cysLT1 = target: T2, cysLT1 (Homo sapiens, UniProt Q9Y271); settings: high affinity receptor for LTD4; background statement
T2 sequence (Q9Y271 1-337): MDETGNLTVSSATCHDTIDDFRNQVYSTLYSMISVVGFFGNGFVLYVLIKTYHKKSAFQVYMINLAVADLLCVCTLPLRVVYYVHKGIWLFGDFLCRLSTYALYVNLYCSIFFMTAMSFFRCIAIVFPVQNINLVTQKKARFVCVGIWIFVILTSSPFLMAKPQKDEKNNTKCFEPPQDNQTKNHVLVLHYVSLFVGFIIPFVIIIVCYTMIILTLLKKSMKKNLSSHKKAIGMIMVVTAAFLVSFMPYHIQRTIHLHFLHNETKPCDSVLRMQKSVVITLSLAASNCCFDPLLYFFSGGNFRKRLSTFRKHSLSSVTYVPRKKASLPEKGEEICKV

| binding affinity for ALXR [1] | binding affinity for cysLT1 (cysLT1) | Compound | inhibition of LTB4-induced chemotaxis of neutrophils (neutrophils) |
| --- | --- | --- | --- |
|  |  | COC(=O)CCC[C@H](O)[C@H](O)CO [Compound 1] | as potently as lipoxin A4 |
|  |  | CCCCC[C@H](O)[C@H](O)CO [Compound 2] | as potently as lipoxin A4 |
| nM affinity | nM affinity | CCCCC[C@H](O)/C=C/C=C\C=C\C=C\[C@@H](O)[C@@H](O)CCCC(=O)O [Lipoxin A4] |  |
